Columns and labels:
Type in all cases: cell-based
human TLR7 = target: T1, human TLR7 (Homo sapiens, UniProt Q9NYK1); assay: TLR7 inhibition reporter assay (HEK-Blue SEAP); conditions: HEK-Blue cells overexpressing human TLR7, stimulated with gardiquimod 7.5 μM, 22 hour incubation
T1 construct: host or cells: HEK-Blue cells
T1 sequence (Q9NYK1 27-1049): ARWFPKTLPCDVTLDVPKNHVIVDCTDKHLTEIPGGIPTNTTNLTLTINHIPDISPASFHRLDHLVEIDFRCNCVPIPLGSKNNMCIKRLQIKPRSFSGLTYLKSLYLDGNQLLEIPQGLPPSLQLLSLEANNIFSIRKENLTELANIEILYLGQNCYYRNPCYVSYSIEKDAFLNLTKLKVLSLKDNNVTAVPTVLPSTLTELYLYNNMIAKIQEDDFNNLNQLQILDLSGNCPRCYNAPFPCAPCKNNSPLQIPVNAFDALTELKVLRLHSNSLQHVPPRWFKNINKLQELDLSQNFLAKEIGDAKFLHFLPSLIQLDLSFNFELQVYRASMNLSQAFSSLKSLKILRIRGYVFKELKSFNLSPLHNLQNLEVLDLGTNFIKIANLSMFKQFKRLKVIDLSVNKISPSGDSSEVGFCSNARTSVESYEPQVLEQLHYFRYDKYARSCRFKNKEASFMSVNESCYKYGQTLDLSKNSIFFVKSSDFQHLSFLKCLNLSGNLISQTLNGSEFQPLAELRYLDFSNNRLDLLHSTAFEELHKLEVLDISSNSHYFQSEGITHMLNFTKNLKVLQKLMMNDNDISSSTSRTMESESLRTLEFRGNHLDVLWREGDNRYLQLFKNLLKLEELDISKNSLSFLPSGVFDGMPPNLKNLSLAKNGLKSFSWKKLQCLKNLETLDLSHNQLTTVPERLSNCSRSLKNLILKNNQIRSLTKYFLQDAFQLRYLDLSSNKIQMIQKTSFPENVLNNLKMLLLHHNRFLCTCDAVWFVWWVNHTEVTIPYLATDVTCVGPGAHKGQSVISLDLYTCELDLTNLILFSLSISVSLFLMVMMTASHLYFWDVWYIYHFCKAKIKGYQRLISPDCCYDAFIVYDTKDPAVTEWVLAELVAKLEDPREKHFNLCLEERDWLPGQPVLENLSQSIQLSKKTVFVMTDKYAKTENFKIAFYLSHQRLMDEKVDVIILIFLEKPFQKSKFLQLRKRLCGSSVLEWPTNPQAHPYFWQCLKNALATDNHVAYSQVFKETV
Outline: (§1)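 HEK-Blue cells overexpressing human TLR7, TLR8 or TLR9 with an NF-κB/AP-1-driven SEAP reporter were pre-treated 30 min at room temperature with compound (0.05 nM to 50 μM), then stimulated with gardiquimod 7.5 μM (TLR7), R848 15.9 μM (TLR8) or ODN2006 5 nM (TLR9). SEAP measured after 22 h at 37° C; inhibition normalized between agonist-plus-DMSO and reference-inhibitor wells.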

human TLR8 = target: T2, human TLR8 (Homo sapiens, UniProt Q9NR97); assay: TLR8 inhibition reporter assay (HEK-Blue SEAP); conditions: HEK-Blue cells overexpressing human TLR8, stimulated with R848 15.9 μM, 22 hour incubation
T2 construct: host or cells: HEK-Blue cells
T2 sequence (Q9NR97 27-1041): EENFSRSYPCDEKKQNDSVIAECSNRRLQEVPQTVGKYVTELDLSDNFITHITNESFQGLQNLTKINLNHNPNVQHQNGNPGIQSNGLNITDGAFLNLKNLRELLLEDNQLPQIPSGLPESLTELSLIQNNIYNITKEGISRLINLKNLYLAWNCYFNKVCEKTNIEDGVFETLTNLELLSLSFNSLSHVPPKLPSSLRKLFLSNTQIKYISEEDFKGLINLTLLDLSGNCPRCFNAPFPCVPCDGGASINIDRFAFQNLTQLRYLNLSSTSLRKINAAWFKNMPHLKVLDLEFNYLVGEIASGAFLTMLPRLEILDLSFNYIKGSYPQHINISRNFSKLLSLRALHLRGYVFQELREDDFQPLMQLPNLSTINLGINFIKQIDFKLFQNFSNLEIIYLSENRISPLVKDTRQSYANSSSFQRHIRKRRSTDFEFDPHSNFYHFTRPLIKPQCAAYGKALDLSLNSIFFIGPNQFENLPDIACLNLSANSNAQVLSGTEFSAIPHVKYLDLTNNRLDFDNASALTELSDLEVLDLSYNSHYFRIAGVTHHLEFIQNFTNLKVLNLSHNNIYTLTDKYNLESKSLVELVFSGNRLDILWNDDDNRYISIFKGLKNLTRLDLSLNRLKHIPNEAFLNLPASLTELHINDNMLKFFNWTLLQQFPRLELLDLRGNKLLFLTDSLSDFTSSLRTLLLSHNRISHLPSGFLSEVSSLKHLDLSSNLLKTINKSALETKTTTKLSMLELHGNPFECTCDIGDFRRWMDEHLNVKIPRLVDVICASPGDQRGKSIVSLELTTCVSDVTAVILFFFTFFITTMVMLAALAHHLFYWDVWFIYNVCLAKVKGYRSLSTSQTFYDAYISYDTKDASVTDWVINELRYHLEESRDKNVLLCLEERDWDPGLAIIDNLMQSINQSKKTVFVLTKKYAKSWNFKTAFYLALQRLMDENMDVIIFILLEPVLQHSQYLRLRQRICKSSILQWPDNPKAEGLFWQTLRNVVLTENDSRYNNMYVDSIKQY
Outline: as §1

human TLR9 = target: T3, human TLR9 (Homo sapiens, UniProt Q9NR96); assay: TLR9 inhibition reporter assay (HEK-Blue SEAP); conditions: HEK-Blue cells overexpressing human TLR9, stimulated with ODN2006 5 nM, 22 hour incubation
T3 construct: host or cells: HEK-Blue cells
T3 sequence (Q9NR96 26-1032): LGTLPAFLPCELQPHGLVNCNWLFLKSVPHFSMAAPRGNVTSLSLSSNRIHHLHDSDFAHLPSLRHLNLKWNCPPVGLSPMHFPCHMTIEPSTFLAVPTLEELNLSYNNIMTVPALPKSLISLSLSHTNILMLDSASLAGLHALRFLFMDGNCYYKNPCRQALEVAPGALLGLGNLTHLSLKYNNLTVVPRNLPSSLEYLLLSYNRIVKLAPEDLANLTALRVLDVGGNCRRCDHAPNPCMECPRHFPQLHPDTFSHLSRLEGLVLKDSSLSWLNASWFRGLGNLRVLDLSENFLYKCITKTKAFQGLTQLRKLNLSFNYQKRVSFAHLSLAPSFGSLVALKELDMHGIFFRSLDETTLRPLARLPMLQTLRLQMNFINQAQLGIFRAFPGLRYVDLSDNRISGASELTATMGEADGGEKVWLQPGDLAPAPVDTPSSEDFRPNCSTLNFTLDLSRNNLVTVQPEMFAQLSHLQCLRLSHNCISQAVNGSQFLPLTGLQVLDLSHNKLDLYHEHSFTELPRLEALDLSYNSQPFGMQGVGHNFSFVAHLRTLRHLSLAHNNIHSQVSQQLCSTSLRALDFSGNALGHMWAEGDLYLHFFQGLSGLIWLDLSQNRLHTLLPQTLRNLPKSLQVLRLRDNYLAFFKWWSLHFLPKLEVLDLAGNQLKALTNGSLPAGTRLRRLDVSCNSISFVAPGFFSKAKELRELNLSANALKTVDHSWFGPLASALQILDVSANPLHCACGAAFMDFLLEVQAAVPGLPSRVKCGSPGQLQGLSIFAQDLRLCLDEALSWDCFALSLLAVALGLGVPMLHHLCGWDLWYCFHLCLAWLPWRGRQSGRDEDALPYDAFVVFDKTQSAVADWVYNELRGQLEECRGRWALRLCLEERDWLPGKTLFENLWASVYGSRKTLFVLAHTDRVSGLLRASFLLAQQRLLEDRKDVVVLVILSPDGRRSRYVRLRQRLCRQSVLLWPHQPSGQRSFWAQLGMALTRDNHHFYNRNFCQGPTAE
Outline: as §1

Row | IC50 (human TLR7) [nM] | IC50 (human TLR8) [nM] | IC50 (human TLR9) [nM] | SMILES
1 | 1.6 | 0.4 | 2200 | CCc1cc2c(C3CCNCC3)n[nH]c2cc1-c1cc(C)c2ncnn2c1 [Example 82, 6-(5-ethyl-3-(piperidin-4-yl)-1H-indazol-6-yl)-8-methyl-[1,2,4]triazolo[1,5-a]pyridine]
2 | 2.6 | 0.1 | 7940 | CCc1cc2c(C3CCN(C(C)C)CC3)n[nH]c2cc1-c1cc(C)c2ncnn2c1 [Example 90, 6-(5-ethyl-3-(1-isopropylpiperidin-4-yl)-1H-indazol-6-yl)-8-methyl-[1,2,4]triazolo[1,5-a]pyridine]
3 | 2.5 | 0.3 | 12100 | Cc1cc(-c2cc3[nH]nc(C4CCC(NCC(=O)N(C)C)CC4)c3cc2C(C)C)cn2ncnc12 (single isomer, unassigned) [Example 125, 2-((4-(5-isopropyl-6-(8-methyl-[1,2,4]triazolo[1,5-a]pyridin-6-yl)-1H-indazol-3-yl)cyclohexyl)amino)-N,N-dimethylacetamide]
4 | 0.3 | 0.1 | 4130 | Cc1cc(-c2cc3[nH]nc(C4CCC(NC5CC5)CC4)c3cc2C(C)C)cn2ncnc12 (single isomer, unassigned) [Example 118, N-cyclopropyl-4-(5-isopropyl-6-(8-methyl-[1,2,4]triazolo[1,5-a]pyridin-6-yl)-1H-indazol-3-yl)cyclohexan-1-amine]
5 | 4.9 | 8.1 | 2310 | COc1cc(-c2cc(C)c3c(OC4CCC(N(C)C)CC4)n[nH]c3c2)cn2ncnc12 (single isomer, unassigned) [Example 183, 4-((6-(8-methoxy-[1,2,4]triazolo[1,5-a]pyridin-6-yl)-4-methyl-1H-indazol-3-yl)oxy)-N,N-dimethylcyclohexan-1-amine]
6 | 17.7 | 0.8 | 3130 | CCCN1CCC(c2n[nH]c3cc(-c4cc(C)c5ncnn5c4)c(C)cc23)CC1 [Example 22, 8-methyl-6-(5-methyl-3-(1-propylpiperidin-4-yl)-1H-indazol-6-yl)-[1,2,4]triazolo[1,5-a]pyridine]
7 | 1.9 | 0.1 | 8470 | Cc1cc(-c2cc3[nH]nc(C4CCC(NCCS(C)(=O)=O)CC4)c3cc2C(C)C)cn2ncnc12 (stereo not drawn) [Example 127, 4-(5-isopropyl-6-(8-methyl-[1,2,4]triazolo[1,5-a]pyridin-6-yl)-1H-indazol-3-yl)-N-(2-(methylsulfonyl)ethyl) cyclohexan-1-amine]
8 | 7.2 | 1.9 | 1660 | Cc1cc(-c2cc(C)c3ncnn3c2)cc2[nH]nc(OC3CCN(CC#N)CC3)c12 [Example 194, 2-(4-((4-methyl-6-(8-methyl-[1,2,4]triazolo[1,5-a]pyridin-6-yl)-1H-indazol-3-yl)oxy)piperidin-1-yl)acetonitrile]
9 | 26.3 | 3.9 | 4900 | Cc1cc(-c2cc3[nH]nc(C4CCC(N5CC(C)(C)C5)CC4)c3cc2C(C)C)cn2ncnc12 (single isomer, unassigned) [Example 136, 6-(3-(4-(3,3-dimethylazetidin-1-yl)cyclohexyl)-5-isopropyl-1H-indazol-6-yl)-8-methyl-[1,2,4]triazolo[1,5-a]pyridine]
10 | 8.1 | 0.2 | 3950 | Cc1cc2c(C3CCC(NC4COC4)CC3)n[nH]c2cc1-c1cc(C)c2ncnn2c1 (single isomer, unassigned) [Example 34, N-(4-(5-methyl-6-(8-methyl-[1,2,4]triazolo[1,5-a]pyridin-6-yl)-1H-indazol-3-yl)cyclohexyl)oxetan-3-amine]
11 | 0.6 | 0.2 | 9560 | Cc1cc(-c2cc3[nH]nc(C4CCC(N5CC6(COC6)C5)CC4)c3cc2C(C)C)cn2ncnc12 (single isomer, unassigned) [Example 128, 6-(4-(5-isopropyl-6-(8-methyl-[1,2,4]triazolo[1,5-a]pyridin-6-yl)-1H-indazol-3-yl)cyclohexyl)-2-oxa-6-azaspiro[3.3]heptane]
12 | 18.3 | 1.4 | 6210 | Cc1cc2c(C3CCN(CC(N)=O)CC3)n[nH]c2cc1-c1cc(C)c2ncnn2c1 [Example 70, 2-(4-(5-methyl-6-(8-methyl-[1,2,4]triazolo[1,5-a]pyridin-6-yl)-1H-indazol-3-yl)piperidin-1-yl)acetamide]
13 | 905 | 41.8 | 9040 | COc1cc(-c2cc3[nH]ncc3cc2C)cn2ncnc12 [Example 64, 8-methoxy-6-(5-methyl-1H-indazol-6-yl)-[1,2,4]triazolo[1,5-a]pyridine]
14 | 1.6 | 1.9 | 4510 | Cc1cc(-c2cc(C)c3ncnn3c2)cc2[nH]nc(OC3CCC(NC4CC4)CC3)c12 (single isomer, unassigned) [Example 190, N-cyclopropyl-4-((4-methyl-6-(8-methyl-[1,2,4]triazolo[1,5-a]pyridin-6-yl)-1H-indazol-3-yl)oxy)cyclohexan-1-amine]

From patent publication US12172995B2, “Substituted indole and indazole compounds” (BRISTOL-MYERS SQUIBB COMPANY, priority 2018, dated 2024)
